Data published in US20110065712A1, “TRICYCLIC COMPOUNDS AND PHARMACEUTICAL USES THEREOF” (CYLENE PHARMACEUTICALS , INC., priority 2009, published 2011).

Columns and labels:
recombinant Pim-1 = recombinant Pim-1 (Homo sapiens, UniProt P11309); assay: Pim-1 assay (33P-ATP, filter plate); format: biochemical; details: read-out: PIM1: IC50
Description: The following procedure was used to assay the Pim-1 kinase activity of compounds of the invention. Other methods for assaying Pim-1 and other Pim kinases, as well as methods to assay for activity against the various kinases disclosed herein are known in the art.
In a final reaction volume of 50 ul, recombinant Pim-1 (1 ng) was incubated with 12 mM MOPS pH 7.0, 0.4 mM EDTA, glycerol 1%, brij 35 0.002%, 2-mercaptoethanol 0.02%, BSA 0.2 mg/ml, 100 uM KKRNRTLTK, 10 mM MgAcetate, 15 uM ATP, [γ-^33P-ATP] (specific activity approx. […]), DMSO 4% and test inhibitor compound at the required concentration. The reaction was initiated by the addition of the magnesium ATP mixture. After 40 min incubation at 23° C., the reactions were quenched by the addition of 100 ul 0.75% Phosphoric acid, and the labeled peptide collected by filtration through a phosphocellulose filter plate. The plate was washed 4 times with 0.075% phosphoric acid (100 ul per well) and then, after the addition of scintillation fluid (20 ul per well), the counts were measured by a scintillation counter.

recombinant human Pim-2 = recombinant human Pim-2 (Homo sapiens, UniProt Q9P1W9); assay: PIM-2 assay (33P-ATP, filter plate); format: biochemical; details: read-out: PIM2: IC50
Description: Test compounds dissolved and diluted in DMSO (2 μl) were added to a reaction mixture comprising 10 μl of 5× Reaction Buffer (40 mM MOPS pH 7.0, 5 mM EDTA), 10 μl of recombinant human Pim-2 solution (4 ng Pim-2 dissolved in dilution buffer (20 mM MOPS pH 7.0; EDTA 1 mM; 5% Glycerol; 0.01% Brij 35; […]; […] 2-mercaptoethanol; 1 mg/ml BSA)) and 8 ul of water. Reactions were initiated by the addition of 10 ul of ATP Solution (49% (15 mM MgCl2; 75 uM ATP) 1% ([γ-^33P]ATP: Stock 1mCi/1000; 3000Ci/mmol (Perkin Elmer)) and 10 ul of substrate peptide solution (RSRSSYPAGT, dissolved in water at a concentration of 1 mM), Reactions were maintained for 10 min at 30° C. The reactions were quenched with 100 ul of 0.75% phosphoric acid, then transferred to and filtered through a Phosphocellulose filter plate (Millipore, MSPH-N6B-50). After washing each well 4 times with 0.75% phosphoric acid, scintillation fluid (20 uL) was added to each well and the residual radioactivity was measured using a Wallac […] counter.

Sequence of recombinant human Pim-2 (Q9P1W9 whole entry): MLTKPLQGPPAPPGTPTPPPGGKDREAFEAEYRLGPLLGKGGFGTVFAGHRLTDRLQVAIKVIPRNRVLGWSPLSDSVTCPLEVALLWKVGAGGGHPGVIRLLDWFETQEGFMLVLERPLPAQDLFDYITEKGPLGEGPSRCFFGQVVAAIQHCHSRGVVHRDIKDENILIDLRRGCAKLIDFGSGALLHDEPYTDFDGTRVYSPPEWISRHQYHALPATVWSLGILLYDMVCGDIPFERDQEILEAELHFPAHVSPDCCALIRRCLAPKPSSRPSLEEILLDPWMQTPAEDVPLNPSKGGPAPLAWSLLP
Sequence of recombinant Pim-1 (P11309 whole entry): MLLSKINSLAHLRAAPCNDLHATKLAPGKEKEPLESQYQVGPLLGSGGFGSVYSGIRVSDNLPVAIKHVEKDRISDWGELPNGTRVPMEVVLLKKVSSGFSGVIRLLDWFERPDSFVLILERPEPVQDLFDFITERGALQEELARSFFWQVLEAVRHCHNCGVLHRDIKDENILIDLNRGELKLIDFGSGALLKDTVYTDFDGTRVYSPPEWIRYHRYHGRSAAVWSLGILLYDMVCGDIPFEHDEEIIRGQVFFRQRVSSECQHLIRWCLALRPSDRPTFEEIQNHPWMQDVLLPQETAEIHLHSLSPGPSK

NC(=O)c1cnn2c1nc(Nc1ccccc1Cl)c1ccccc12 [Compound B, 5-(2-chlorophenylamino)pyrazolo[1,5-a]quinazoline-3-carboxamide]
IC50 (recombinant Pim-1): < 1000 nM | IC50 (recombinant human Pim-2): < 1000 nM
